{"source": "patent US9718840B2", "about": "“Condensed 5-oxazolidinone derivative” (SUMITOMO DAINIPPON PHARMA CO., LTD., priority 2014, dated 2017)", "key": {"Human FXIIa": {"biological_target": "T1, Human FXIIa (Homo sapiens, UniProt P00748)", "T1 construct": "5) Factor XIIa (FXIIa); purchased Enzyme Research Laboratories", "T1 sequence (P00748 373-615 limits assumed)": "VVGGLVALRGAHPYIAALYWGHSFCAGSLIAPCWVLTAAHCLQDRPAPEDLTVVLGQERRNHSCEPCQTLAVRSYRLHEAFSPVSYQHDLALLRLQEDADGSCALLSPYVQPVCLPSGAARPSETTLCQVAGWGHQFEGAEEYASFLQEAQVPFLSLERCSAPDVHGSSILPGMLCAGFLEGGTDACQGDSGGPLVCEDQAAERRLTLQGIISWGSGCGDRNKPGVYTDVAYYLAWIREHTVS", "T1 sequence (P00748 20-372 partner limits assumed)": "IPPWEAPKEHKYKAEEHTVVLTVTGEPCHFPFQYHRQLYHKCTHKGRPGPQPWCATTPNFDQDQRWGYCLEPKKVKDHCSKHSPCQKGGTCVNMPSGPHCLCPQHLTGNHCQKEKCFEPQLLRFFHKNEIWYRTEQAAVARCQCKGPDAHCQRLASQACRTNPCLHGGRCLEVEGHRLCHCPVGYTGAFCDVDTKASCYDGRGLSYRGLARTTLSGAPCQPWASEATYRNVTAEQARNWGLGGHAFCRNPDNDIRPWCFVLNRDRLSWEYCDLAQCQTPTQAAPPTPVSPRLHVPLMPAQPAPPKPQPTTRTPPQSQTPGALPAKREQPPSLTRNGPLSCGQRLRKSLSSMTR", "test": "Enzyme selectivity evaluation test: FXIIa", "assay_type": "biochemical", "method": "(§1) S-2288 (H-D-Ile-Pro-Arg-pNA.2HCl) was added as the substrate at a final concentration of 300 μmol/L. After progression of the reaction, the absorbance was measured at OD 405 nm."}, "Human plasmin": {"biological_target": "T2, Human plasmin (Homo sapiens, UniProt P00747)", "T2 construct": "Human plasmin (manufactured by Sekisui Diagnostics, LLC); purchased Sekisui Diagnostics, LLC", "T2 sequence (P00747 581-810 limits assumed)": "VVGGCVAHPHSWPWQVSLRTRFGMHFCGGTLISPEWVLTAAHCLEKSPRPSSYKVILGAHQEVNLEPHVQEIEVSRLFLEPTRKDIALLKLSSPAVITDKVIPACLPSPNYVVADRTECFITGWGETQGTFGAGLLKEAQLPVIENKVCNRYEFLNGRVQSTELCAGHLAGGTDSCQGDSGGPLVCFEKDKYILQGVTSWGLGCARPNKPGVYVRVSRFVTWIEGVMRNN", "T2 sequence (P00747 97-580 partner limits assumed)": "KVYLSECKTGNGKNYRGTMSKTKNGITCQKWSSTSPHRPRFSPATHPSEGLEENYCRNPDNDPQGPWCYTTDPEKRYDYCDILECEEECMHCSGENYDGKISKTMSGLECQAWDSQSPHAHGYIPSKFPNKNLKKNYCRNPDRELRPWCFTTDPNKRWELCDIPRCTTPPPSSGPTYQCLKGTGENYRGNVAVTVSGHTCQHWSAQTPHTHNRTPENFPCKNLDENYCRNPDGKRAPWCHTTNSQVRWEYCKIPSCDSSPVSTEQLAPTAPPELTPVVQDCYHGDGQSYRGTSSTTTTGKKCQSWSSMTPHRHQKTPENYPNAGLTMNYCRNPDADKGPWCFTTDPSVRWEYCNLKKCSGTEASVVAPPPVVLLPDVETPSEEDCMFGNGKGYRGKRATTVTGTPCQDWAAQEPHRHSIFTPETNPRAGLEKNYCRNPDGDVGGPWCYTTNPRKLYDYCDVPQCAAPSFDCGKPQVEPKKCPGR", "test": "Enzyme selectivity evaluation test: plasmin", "assay_type": "biochemical", "method": "as §1"}, "[1]": {"test_system": "Rabbit venous thrombus models", "test": "In vivo antithrombotic effect evaluation test using rabbit (arteriovenous shunt)", "conditions": "prompt i.v. + continuous i.v.", "method": "Rabbit venous thrombus models were prepared by a modification of the report of Wong et al. (Wong P C. et al., J. Pharmacol. Exp. Ther. 292: 351-357 (2000)). Male rabbits (JW, 2 to 4 kg) were anesthetized by the inhalation of isoflurane (ISOFLU®, manufactured by DS Pharma Animal Health Co., Ltd.) (introduced anesthesia: 4%, continuous anesthesia: 1.5 to 2.5%). A tracheostomy tube was inserted to each rabbit, which was then ventilated using a respirator. For the intravenous administration of a test drug and blood collection, catheters were inserted to the right femoral vein and the right femoral artery, respectively. An arteriovenous shunt filled with saline was inserted to the carotid artery and the jugular vein. The arteriovenous shunt was prepared by connecting Atom extension tubes (4Fr) having lengths of 15 cm and 13 cm to the artery side and the vein side, respectively, of a polyethylene tube (length: 60 cm, outside diameter: 11.1 mm, inside diameter: 7.9 mm). Also, 4-0 silk thread having a length of 5 cm was indwelled in the arteriovenous shunt. Blood was sent for 30 minutes from the carotid artery to the jugular vein via the arteriovenous shunt. The shunt was removed, and the weight of the silk thread covered with thrombus was measured. The weight of the silk thread measured before the experiment was subtracted from the measured weight, and the obtained value was used as a wet thrombus weight. One hour before the open of the arteriovenous shunt, the test drug or a vehicle was promptly intravenously administered (0.67 mL/kg) and then continuously intravenously administered (1 mL/kg/hr). The continuous injection was continued throughout the experiment. Further, an existing anticoagulant dabigatran (antithrombin drug) and rivaroxaban (FXa inhibitor) were tested as control drugs.\nIn order to measure aPTT of blood samples as an index for the intrinsic coagulation pathway, blood was collected before administration and immediately before cessation of blood flow, and plasma was prepared using 3.2% sodium citrate. After incubation at 37° C. for 6 minutes, an STA reagent Cephascreen (for aPTT assay; manufactured by Roche Diagnostics K.K.) was added in an amount equal thereto, and the mixture was further incubated for 4 minutes. STA calcium chloride (manufactured by Roche Diagnostics K.K.) was added in an amount equal thereto, and the time required for coagulation was measured.\nIn order to measure prothrombin time (PT) of blood samples as an index for the extrinsic coagulation pathway, blood was collected before administration and immediately before cessation of blood flow, and plasma was prepared using 3.2% sodium citrate. After incubation at 37° C. for 10 minutes, Neoplastin Plus (for PT assay; manufactured by Roche Diagnostics K.K.) was added in a double amount, and the time required for coagulation was measured."}, "[2]": {"test_system": "Rabbit nail bleeding models", "test": "Effect of combined use with antiplatelet drug using rabbit nail bleeding model", "assay_type": "in vivo", "conditions": "alone; for Bleeding time: rabbit, maximum 60 minutes; for Bleeding time (fold-increase): ratio to vehicle group average", "method": "Rabbit nail bleeding models were prepared by a modification of the report of Wong et al. (Wong P C. et al., J. Thromb. Haemost. 7: 1313-1320 (2009)). Male rabbits (JW, 1.5 to 3.5 kg) were anesthetized by the inhalation of isoflurane (ISOFLU®, manufactured by DS Pharma Animal Health Co., Ltd.) (introduced anesthesia: 4%, continuous anesthesia: 2 to 3%). For the intravenous administration of a test drug or a vehicle, an indwelling needle was inserted to the auricular vein, and the test drug or the vehicle was promptly intravenously administered (0.67 mL/kg) and then continuously intravenously administered (1 mL/kg/hr). One hour after the start of administration, three posterior toenails were cut and dipped in saline heated to approximately 37° C., and the bleeding time was measured. The bleeding time was defined as a time from the cutting to the arrest of bleeding, and an average value from the three nails was used. The measurement time was 60 minutes at the maximum. If bleeding for 60 minutes or longer was confirmed, the bleeding time was regarded as 60 minutes."}, "Human urokinase": {"biological_target": "T3, Human urokinase (Homo sapiens, UniProt P00749)", "T3 construct": "purchased Calbiochem", "test": "Enzyme selectivity evaluation test: urokinase", "assay_type": "biochemical", "method": "S-2444 (pyroGlu-Gly-Arg-pNA.HCl) was added as the substrate at a final concentration of 300 μmol/L. After progression of the reaction, the absorbance was measured at OD 405 nm."}, "Human kallikrein": {"biological_target": "T4, Human kallikrein (Homo sapiens, UniProt P03952)", "T4 construct": "purchased Enzyme Research Laboratories", "T4 sequence (P03952 391-638 limits assumed)": "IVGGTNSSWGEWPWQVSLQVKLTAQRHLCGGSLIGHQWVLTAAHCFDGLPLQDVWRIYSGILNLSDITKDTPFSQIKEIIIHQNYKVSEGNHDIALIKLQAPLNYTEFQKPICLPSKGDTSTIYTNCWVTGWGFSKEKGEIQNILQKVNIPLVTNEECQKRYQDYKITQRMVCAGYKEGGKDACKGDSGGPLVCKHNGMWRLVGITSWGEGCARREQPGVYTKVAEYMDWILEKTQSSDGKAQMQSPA", "T4 sequence (P03952 20-390 partner limits assumed)": "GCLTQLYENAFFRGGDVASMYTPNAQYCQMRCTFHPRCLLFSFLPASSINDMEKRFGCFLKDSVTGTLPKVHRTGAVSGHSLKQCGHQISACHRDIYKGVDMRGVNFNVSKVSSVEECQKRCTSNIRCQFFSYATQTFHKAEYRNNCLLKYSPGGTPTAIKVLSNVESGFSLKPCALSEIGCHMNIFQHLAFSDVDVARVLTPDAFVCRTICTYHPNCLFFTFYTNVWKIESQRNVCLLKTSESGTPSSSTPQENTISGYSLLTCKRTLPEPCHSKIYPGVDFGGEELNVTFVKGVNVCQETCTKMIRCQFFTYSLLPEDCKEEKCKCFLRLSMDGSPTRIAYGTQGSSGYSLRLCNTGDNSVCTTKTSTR", "test": "Enzyme selectivity evaluation test: plasma kallikrein", "assay_type": "biochemical", "method": "as §1"}, "[3]": {"conditions": "dose 0.15 + 0.225 mg/kg + mg/kg/h"}, "[4]": {"conditions": "dose 0.5 + 0.75 mg/kg + mg/kg/h"}, "[5]": {"conditions": "dose 1.5 + 2.25 mg/kg + mg/kg/h"}, "[6]": {"conditions": "dose 1.5 + 2.25 mg/kg + mg/kg/h i.v."}, "[7]": {"conditions": "dose 5.0 + 7.5 mg/kg + mg/kg/h i.v."}}, "note": "pIC50: −log10 of the molar value.", "data": [{"smiles": "Cl.N[C@H](CF)[C@H]1CC[C@H](C(=O)N2CC[C@@H](C3CCCCC3)[C@H]2C(=O)Nc2ccc3[nH]c(C(=O)O)cc3c2)CC1", "note": "[Reference Example 2-6, 5-{[(3S)-1-({trans-4-[(1S)-1-Amino-2-fluoroethyl]cyclohexyl}carbonyl)-3-cyclohexyl-L-prolyl]amino}-1H-indole-2-carboxylic acid hydrochloride]", "values": [{"measurement": "pIC50", "setting": "Human FXIIa", "result": "< 5.00"}, {"measurement": "pIC50", "setting": "Human plasmin", "result": "< 5.00"}, {"measurement": "PT (ratio)", "setting": "[1]; [3]", "result": "1.01 ± 0.02", "unit": "ratio"}, {"measurement": "Thrombus weight", "setting": "[1]; [3]", "result": "81 ± 12", "unit": "mg"}, {"measurement": "aPTT (ratio)", "setting": "[1]; [3]", "result": "1.24 ± 0.08", "unit": "ratio"}, {"measurement": "PT (ratio)", "setting": "[1]; [4]", "result": "1.00 ± 0.02", "unit": "ratio"}, {"measurement": "Thrombus weight", "setting": "[1]; [4]", "result": "66 ± 22", "unit": "mg"}, {"measurement": "aPTT (ratio)", "setting": "[1]; [4]", "result": "1.59 ± 0.15", "unit": "ratio"}, {"measurement": "PT (ratio)", "setting": "[1]; [5]", "result": "1.01 ± 0.00", "unit": "ratio"}, {"measurement": "Thrombus weight", "setting": "[1]; [5]", "result": "36 ± 6", "unit": "mg"}, {"measurement": "aPTT (ratio)", "setting": "[1]; [5]", "result": "1.84 ± 0.10", "unit": "ratio"}, {"measurement": "PT (ratio)", "setting": "[1]; dose 5.0 + 7.5 mg/kg + mg/kg/h", "result": "1.02 ± 0.02", "unit": "ratio"}, {"measurement": "Thrombus weight", "setting": "[1]; dose 5.0 + 7.5 mg/kg + mg/kg/h", "result": "16 ± 6", "unit": "mg"}, {"measurement": "aPTT (ratio)", "setting": "[1]; dose 5.0 + 7.5 mg/kg + mg/kg/h", "result": "2.35 ± 0.09", "unit": "ratio"}, {"measurement": "Bleeding time", "setting": "[2]; [6]", "result": "772 ± 234", "unit": "s"}, {"measurement": "Bleeding time", "setting": "[2]; [7]", "result": "768 ± 236", "unit": "s"}, {"measurement": "Bleeding time (fold-increase)", "setting": "[2]; [6]", "result": "1.3 ± 0.4", "unit": "fold-increase"}, {"measurement": "Bleeding time (fold-increase)", "setting": "[2]; [7]", "result": "1.3 ± 0.4", "unit": "fold-increase"}, {"measurement": "pIC50", "setting": "Human urokinase", "result": "< 5.00"}, {"measurement": "pIC50", "setting": "Human kallikrein", "result": 6.37}]}]}
